From publication PMC9854762, “Antibiofilm and Anti-Quorum-Sensing Activities of Novel Pyrazole and Pyrazolo[1,5-a]pyrimidine Derivatives as Carbonic Anhydrase I and II Inhibitors: Design, Synthesis, Radiosterilization, and Molecular Docking Studies” (Antibiotics, 2023) come the findings set out here.

Structures are written as SMILES. ≈ marks a conversion by molar mass, not a printed value.

One assay deals with P. aeruginosa. The experiment in a line: Anti-QS activity via signal inhibition, CV026 as indicator. As to conditions: P. aeruginosa 10^6 CFU/mL; sub-MICs; control 11.2 mm. The format is cell-based. As for the experimental part: (§1) The anti-QS potential of the tested compounds was explored as described. Briefly, an overnight bacterial suspension of the indicator organism C. violaceum CV026 was prepared in a concentration of 10^6 CFU/mL, and an aliquot of 200 µL was seeded in 5 mm of Soft Top agar (1.3 g agar, 2.0 g tryptone, 1.0 g NaCl, and 200 mL deionized water), supplemented with 20 µL of 0.25 µg/mL C6-HSL (N-hexanoyl-L-homoserine lactone), added as an exogenous AHL source. Wells were cut in the center of the plate after incubation for 30 min and then filled with 50 µL of sub-MICs of each most-active pyrazole hybrid. DMSO was used as a negative control. The plates were incubated at 28 °C for 48 h. Inhibition of violacein production by the indicator strain around the well, indicated by the presence of a white circle surrounded by a purple halo, was considered as positive for QS interference. For further investigation to determine the anti-QS activity for the pyrazole against the biofilm-forming bacterial isolates, an in vitro screening was performed. This was carried out by inoculation of 200 µL from an O/N CV026 culture onto plates of Soft Top agar. Wells of 8 mm diameter were separately made and filled with 90 µL of each biofilm-forming bacterial isolate (10^6 CFU/mL), plus 10 µL of each active pyrazole derivative (sub-MICs). Wells containing the bacterial isolates without treatment were used as controls. The signal diffusion zone diameter produced during the bacterial growth was measured in the presence of pyrazole and pyrazolo[1,5-a]pyrimidine derivatives and compared with the zone diameter of the violacein production by CV026.

A further assay concerns S. aureus. The description is as above. The assay is classed as cell-based. The note with it: S. aureus 10^6 CFU/mL; sub-MICs; control 12.0 mm. On the procedure:
as §1

The test system of assay [1] is S. aureus DH-432. In words: Broth microdilution MIC/MBC. The assay is classed as cell-based, Staphylococcus aureus. The note with it: for MIC: Staphylococcus aureus, DH432, 24 h, read-out: MIC (Mean ± SEM); for MBC/MIC: value in brackets. On the procedure: (§2) The broth microdilution method was taken as a basis to detect the MICs of pyrazole compounds against tested clinical isolates, according to the Clinical Laboratory and Standards Institute guidelines. The broth cultures were used to prepare the bacterial inoculums, and the suspensions were adjusted to the standard 0.5 McFarland turbidity. Stock solutions of the synthesized pyrazoles were prepared in pure DMSO and further serially diluted with TS broth in the concentration range from 128 µg/mL to 0.0625 µg/mL. A well containing noninoculated TS broth, free of any antimicrobial agents, was also included to ensure the medium sterility, while Erythromycin and Amikacin served as positive controls. Bacterial growth was determined by adding 20 µL of 0.5% TTC (2,3,5-triphenyltetrazolium chloride) aqueous solution. […] All experiments were repeated three times. The bactericidal effect from each concentration of the pyrazole and pyrazolo[1,5-a]pyrimidine derivatives showing growth inhibition was further studied. For this study, a loopful of 5 µL was taken from each no-visible growth tube and streaked onto plates of TS agar.
On the technique in general: In broth dilution the organism is exposed to a series of concentrations in liquid medium.

A further assay relates to P. aeruginosa DH-5698. In words: Agar well-diffusion assay. The note with it: Pseudomonas aeruginosa, DH5698; P. aeruginosa DH-5698; 50 µL of 10 mM per well; read-out: Diameter of Inhibition Zones (AZOI). The assay is classed as cell-based, Pseudomonus aeruginosa. As for the experimental part: (§3) The synthesized compounds were initially screened for their in vitro antibacterial activity against the different Gram-positive and Gram-negative bacteria, tested using the agar well-diffusion assay. The turbidity of the bacterial suspensions was established to the 0.5 McFarland turbidity standard. The activity was performed on TS agar plates. The bacteria were spread on the surface of the agar plates, and 10 mm wells were screwed into the agar plates. The assay was performed under aseptic conditions. An aliquot of 50 µL of each tested compound (10 mM) was added to the wells, and the plates were incubated overnight at 37 °C. Both Erythromycin and Amikacin antibiotic disks were used as positive control, while DMSO solvent was used as a negative control in this study. The diameters of inhibition zones were measured and recorded in mm. A comparative study of the synthesized compounds was determined. The experiment was performed in triplicates.
On the technique in general: A growth-free zone around the sample is the usual read-out of agar diffusion tests.

The subject of assay [2] is S. aureus DH-432. The experiment in a line: Agar well-diffusion assay. The assay is classed as cell-based. The note with it: Staphylococcus aureus, DH432; S. aureus DH-432; 50 µL of 10 mM per well; read-out: Diameter of Inhibition Zones (AZOI). As for the experimental part:
as §3

The test system of a further assay is E. coli DH-5987. In words: Agar well-diffusion assay. The assay is classed as cell-based. The note with it: Escherichia coli, DH5987, 50 µL of 10 mM per well, read-out: Diameter of Inhibition Zones (AZOI). As for the experimental part: as §3
For another assay, the system named is E. faecalis DH-5478. The experiment in a line: Agar well-diffusion assay. The format is cell-based. As to conditions: Enterococcus faecalis, DH5478; E. faecalis DH-5478; 50 µL of 10 mM per well; read-out: Diameter of Inhibition Zones (AZOI). On the procedure:
as §3

The next assay relates to S. pyogenes DH-3467. In words: Agar well-diffusion assay. The format is cell-based. As to conditions: Streptococcus pyogenes, DH3467; S. pyogenes DH-3467; 50 µL of 10 mM per well; read-out: Diameter of Inhibition Zones (AZOI). As for the experimental part: as §3
In assay [3] the test system is A. baumannii DH-243. The experiment in a line: Agar well-diffusion assay. The assay is classed as cell-based. As to conditions: Acinetobacter baumannii, DH243; A. baumannii DH-243; 50 µL of 10 mM per well; read-out: Diameter of Inhibition Zones (AZOI). On the procedure:
as §3

Another assay concerns the target T1, hCA-I (Homo sapiens, UniProt P00915).
T1 construct: from tissue; host or cells: human erythrocytes (hemolysate)
In words: Carbonic anhydrase isoenzyme inhibition assay. The format is biochemical. As to conditions: for Ki: Lineweaver–Burk graphs. As for the experimental part: (§4) The purification of both human cytosolic CA isoforms was carried out as previously described, using a simple one-step procedure of Sepharose-4B-L-tyrosine-sulfanilamide affinity chromatography. […] The carbonic anhydrase isoenzymes’ activities were determined in accordance with the previous study. […] For the designation of the inhibition efficacy of each novel pyrazole and for the pyrazolo[1,5-a]pyrimidine derivatives on both hCA isoenzymes, an activity (%) graph was drawn. The IC50 values were obtained from activity (%) versus compounds plots. The Ki values were calculated using three concentrations for each derivative.

Another assay addresses T2, hCA-II (Homo sapiens, UniProt P00918).
T2 construct: from tissue; host or cells: human erythrocytes (hemolysate)
In words: Carbonic anhydrase isoenzyme inhibition assay. The assay is classed as biochemical. The note with it: for Ki: Lineweaver–Burk graphs. On the procedure:
as §4

Assay [4] has as its system A. baumannii DH-243. In words: Broth microdilution MIC/MBC. The assay is classed as cell-based, Acinetobacter baumannii. As to conditions: for MIC: Acinetobacter baumannii, DH243, 24 h, read-out: MIC (Mean ± SEM); for MBC/MIC: value in brackets. As for the experimental part:
as §2

T1 sequence (P00915 whole entry): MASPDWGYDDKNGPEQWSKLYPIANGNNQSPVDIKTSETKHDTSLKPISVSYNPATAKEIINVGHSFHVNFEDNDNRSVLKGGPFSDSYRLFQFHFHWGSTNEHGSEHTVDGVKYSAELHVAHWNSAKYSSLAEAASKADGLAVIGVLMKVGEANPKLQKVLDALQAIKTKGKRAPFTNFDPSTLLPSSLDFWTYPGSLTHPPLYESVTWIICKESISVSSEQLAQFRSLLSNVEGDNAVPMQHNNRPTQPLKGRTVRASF

A word on the MIC: it is the smallest concentration in the dilution series that meets the test's criterion for growth inhibition. What is called IC50 is the concentration needed to halve the response being measured. Low values mean inhibition by little substance, high ones a need for much substance. Broadly, the Ki is the dissociation constant of the complex between target and ligand, obtained from inhibition or displacement. A lower Ki goes with higher affinity. `CCOC(=O)c1ccc(N=Nc2c(N)n[nH]c2N)cc1` [Compound 3a, Ethyl 4-((3,5-diamino-1H-pyrazol-4-yl)diazenyl)benzoate]: the “QS signal diffusion zone” value with P. aeruginosa turned out to be 7.8 mm; with S. aureus it was 5.0 mm. The minimum inhibitory concentration (MIC) in the assay on S. aureus DH-432 [1] amounted to 0.125 ± 0.3 µg/mL (≈ 0.456 µM); in the assay with A. baumannii DH-243 [4] it was 0.25 ± 0.2 µg/mL (≈ 0.911 µM). Moreover, the MBC/MIC against S. aureus DH-432 [1] and in the assay with A. baumannii DH-243 [4] was 0.5 in each case. The zone of inhibition at 10000 µM in the assay with P. aeruginosa DH-5698 was 30.8 mm; in the assay on S. aureus DH-432 [2], 31.1 mm; with E. coli DH-5987, 32 mm; in the assay with E. faecalis DH-5478 it was 30.6 mm; with S. pyogenes DH-3467, 31.5 mm; with A. baumannii DH-243 [3] it was 29.3 mm. The half-inhibitory concentration (IC50) at hCA-I was 92.3 nM; at hCA-II, 73.2 nM. Moreover, the inhibition constant (Ki) came out at 88.8 nM at hCA-I and 91.8 nM at hCA-II.
For `CCOC(=O)c1ccc(N=Nc2c(N=Cc3ccc(N(C)C)cc3)n[nH]c2N)cc1` [Compound 5a, Ethyl 4-((5-amino-3-((4-(dimethylamino)benzylidene)amino)-1H-pyrazol-4-yl)diazenyl)benzoate], the figures for the “QS signal diffusion zone” value with P. aeruginosa and in the assay with S. aureus were 9.8 mm and 7.3 mm, respectively. The “MIC (Mean ± SEM)” value with S. aureus DH-432 [1] (24 h) is listed as 0.25 ± 0.2 µg/mL (≈ 0.617 µM). Further, the minimal inhibitory concentration (MIC) in the assay with S. aureus DH-432 [1] stood at 0.25 µg/mL (≈ 0.617 µM); with A. baumannii DH-243 [4], 0.5 ± 0.3 µg/mL (≈ 1.23 µM). Further, the MBC/MIC with S. aureus DH-432 [1] and in the assay with A. baumannii DH-243 [4] was 0.5 each time. Besides, the zone of inhibition at 10000 µM was found to be 28.3 mm in the assay with P. aeruginosa DH-5698; 28.6 mm in the assay with S. aureus DH-432 [2]; 29.9 mm in the assay with E. coli DH-5987; 28.2 mm in the assay on E. faecalis DH-5478; 28.9 mm in the assay with S. pyogenes DH-3467; 28 mm in the assay with A. baumannii DH-243 [3]. The IC50 against hCA-I was 138 nM; against hCA-II, 161 nM. In addition, the Ki at hCA-I is 176 nM; on hCA-II it was 144 nM.
On to `CCOC(=O)c1ccc(N=Nc2c(N)nn3c(C)cc(C)nc23)cc1` [Compound 6, ethyl-4-((2-amino-5,7-dimethylpyrazolo[1,5-a]pyrimidin-3-yl)diazenyl)benzoate], for which the “QS signal diffusion zone” value is 8.7 mm in the assay with P. aeruginosa and 6.5 mm with S. aureus. For the same compound, the MIC in the assay on S. aureus DH-432 [1] was determined as 0.187 ± 0.1 µg/mL (≈ 0.553 µM); in the assay on A. baumannii DH-243 [4], 0.5 ± 0.1 µg/mL (≈ 1.48 µM). Besides, the MBC/MIC against S. aureus DH-432 [1] and against A. baumannii DH-243 [4] was 0.5 each time. The zone of inhibition at 10000 µM in the assay on P. aeruginosa DH-5698 is 28.8 mm; in the assay on S. aureus DH-432 [2], 29.5 mm; in the assay on E. coli DH-5987, 31 mm; in the assay on E. faecalis DH-5478, 29.5 mm; with S. pyogenes DH-3467 it was 30.2 mm; in the assay with A. baumannii DH-243 [3], 28.8 mm. Further, the concentration for half-maximal inhibition (IC50) on hCA-I came out at 169 nM; against hCA-II it was 130 nM. The Ki on hCA-I turned out to be 153 nM; at hCA-II it was 146 nM.
In the case of `CCOC(=O)c1ccc(N=Nc2c(N)nn3c(N)c(C#N)c(-c4ccc(N(C)C)cc4)nc23)cc1` [Compound 9a, Ethyl-4-((2,7-diamino-6-cyano-5-(4-(dimethylamino)phenyl)pyrazolo[1,5-a]pyrimidin-3-yl)diazenyl)benzoate], the “QS signal diffusion zone” value in the assay with P. aeruginosa was found to be 9.5 mm; in the assay on S. aureus, 6.9 mm. Moreover, the MIC is 0.25 ± 0.2 µg/mL (≈ 0.532 µM) in the assay with S. aureus DH-432 [1] and 0.375 ± 0.2 µg/mL (≈ 0.799 µM) in the assay on A. baumannii DH-243 [4]. Further, the MBC/MIC against S. aureus DH-432 [1] and against A. baumannii DH-243 [4] was 0.5 in each case. In addition, the zone of inhibition at 10000 µM in the assay on P. aeruginosa DH-5698 is 28.5 mm; with S. aureus DH-432 [2] it was 29.1 mm; with E. coli DH-5987 it was 30.4 mm; in the assay on E. faecalis DH-5478, 28.7 mm; in the assay with S. pyogenes DH-3467 it was 29.3 mm; with A. baumannii DH-243 [3], 28.4 mm. The IC50 was 123 nM on hCA-I and 142 nM at hCA-II. The figures for the inhibition constant (Ki) on hCA-I and on hCA-II were 102 nM and 136 nM, respectively.
As to `CCOC(=O)c1ccc(N=Nc2c(N)nn3c(O)c(C#N)c(-c4ccc(N(C)C)cc4)nc23)cc1` [Compound 10a, Ethyl-4-((2-amino-6-cyano-5-(4-(dimethylamino)phenyl)-7-hydroxypyrazolo[1,5-a]pyrimidin-3-yl)diazenyl)benzoate], the results for the “QS signal diffusion zone” value in the assay with P. aeruginosa and in the assay with S. aureus were 8.0 mm and 6.2 mm, respectively. Also, the minimal inhibitory concentration (MIC) is 0.125 ± 0.2 µg/mL (≈ 0.266 µM) in the assay on S. aureus DH-432 [1] and 0.375 ± 0.4 µg/mL (≈ 0.797 µM) in the assay with A. baumannii DH-243 [4]. Moreover, the MBC/MIC against S. aureus DH-432 [1] and in the assay with A. baumannii DH-243 [4] was 0.5 each time. The zone of inhibition at 10000 µM in the assay with P. aeruginosa DH-5698 came to 30.1 mm; in the assay on S. aureus DH-432 [2], 30.6 mm; with E. coli DH-5987, 31.5 mm; with E. faecalis DH-5478 it was 29.8 mm; in the assay with S. pyogenes DH-3467, 30.7 mm; in the assay on A. baumannii DH-243 [3], 29.1 mm. The values for the concentration for half-maximal inhibition (IC50) at hCA-I and against hCA-II were 153 nM and 122 nM, respectively. Moreover, the inhibition constant (Ki) at hCA-I was 144 nM; at hCA-II it was 139 nM.
